Laboratory results: the supplement of paper PMC10307832

Experiments:
Test in all cases: relative viability (nuclei count vs DMSO), 5 days (fraction); higher = more cells survive
[1] = compound: CC1=CC=C(C=C1)C(=O)CN2C3=C(CCCC3)SC2=N [Pifithrin_alpha] + CC(=O)c1c(C)c2cnc(Nc3ccc(N4CCNCC4)cn3)nc2n(C2CCCC2)c1=O [Palbociclib] (partner 0.5 µM)
Outline: (§1)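 Lung cancer cell lines were pin-tool dosed in 1536-well plates on the day after seeding, with either a lone drug or a fixed anchor-drug dose plus five library-drug doses (not always all listed) in √10 steps. Nuclei were counted on 4× images after 5 days. Relative viability is the ratio of treated-well to vehicle-well nuclei counts, with each value a median of duplicate plates.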

Axitinib + Tozasertib = compound: CNC(=O)c1ccccc1Sc1ccc2c(/C=C/c3ccccn3)n[nH]c2c1 [Axitinib] + Cc1cc(Nc2cc(N3CCN(C)CC3)nc(Sc3ccc(NC(=O)C4CC4)cc3)n2)n[nH]1 [Tozasertib] (partner 0.1 µM)
Outline: as §1

Bemcentinib + Navitoclax = compound: Nc1nc(Nc2ccc3c(c2)CC[C@@H](N2CCCC2)CC3)nn1-c1cc2c(nn1)-c1ccccc1CCC2 [Bemcentinib] + CC1(C)CCC(c2ccc(Cl)cc2)=C(CN2CCN(c3ccc(C(=O)NS(=O)(=O)c4ccc(N[C@H](CCN5CCOCC5)CSc5ccccc5)c(S(=O)(=O)C(F)(F)F)c4)cc3)CC2)C1 [Navitoclax] (partner 0.5 µM)
Outline: as §1

Bemcentinib + AZD7762 = compound: Nc1nc(Nc2ccc3c(c2)CC[C@@H](N2CCCC2)CC3)nn1-c1cc2c(nn1)-c1ccccc1CCC2 [Bemcentinib] + NC(=O)Nc1cc(-c2cccc(F)c2)sc1C(=O)N[C@H]1CCCNC1 [AZD7762] (partner 0.2 µM)
Outline: as §1

Cell Line	relative viability ([1]; first compound 1 µM)	relative viability ([1]; first compound 3.162 µM)	relative viability ([1]; first compound 10 µM)	relative viability ([1]; first compound 31.62 µM)	relative viability ([1]; first compound 100 µM)	relative viability (Axitinib + Tozasertib; first compound 0.005 µM)	relative viability (Axitinib + Tozasertib; first compound 0.01581 µM)	relative viability (Axitinib + Tozasertib; first compound 0.05 µM)	relative viability (Axitinib + Tozasertib; first compound 0.1581 µM)	relative viability (Axitinib + Tozasertib; first compound 0.5 µM)	relative viability (Bemcentinib + Navitoclax; first compound 0.04 µM)	relative viability (Bemcentinib + Navitoclax; first compound 0.1265 µM)	relative viability (Bemcentinib + Navitoclax; first compound 0.4 µM)	relative viability (Bemcentinib + Navitoclax; first compound 1.265 µM)	relative viability (Bemcentinib + Navitoclax; first compound 4 µM)	relative viability (Bemcentinib + AZD7762; first compound 0.04 µM)	relative viability (Bemcentinib + AZD7762; first compound 0.1265 µM)	relative viability (Bemcentinib + AZD7762; first compound 0.4 µM)	relative viability (Bemcentinib + AZD7762; first compound 1.265 µM)	relative viability (Bemcentinib + AZD7762; first compound 4 µM)
201T	0.349	0.319	0.344	0.286	0.376	1	0.896	0.907	0.929	1.19	1.17	1.24	1.21	1.24	1.3	0.643	0.668	0.605	0.611	0.625
A549	–	–	–	–	–	–	–	–	–	–	1.2	1.27	1.32	1.29	1.2	–	–	–	–	–
A-427	0.5	0.529	0.497	0.447	0.454	0.206	0.193	0.228	0.266	0.22	–	0.946	0.826	0.909	1.07	0.75	0.856	0.746	0.63	0.637
ABC-1	–	0.839	0.831	0.462	0.53	0.19	0.226	0.14	0.179	0.183	–	–	–	–	–	–	0.937	0.799	0.816	1.09
BEN	0.487	0.488	0.456	0.444	0.472	0.495	0.574	0.582	0.513	0.466	0.0583	0.0756	0.0599	0.055	0.0552	0.554	0.637	0.638	0.674	0.634
CAL-12T	0.364	0.308	0.436	–	0.238	0.417	0.363	0.34	0.365	0.394	1.12	1.28	1.25	1.19	1.32	0.654	0.757	0.618	0.636	0.485
COR-L23	0.287	0.26	0.281	–	0.267	0.212	0.205	0.24	0.244	0.278	1.14	1.11	1.1	1.03	1.03	–	–	–	–	–
COR-L 105	0.382	0.42	0.412	0.357	0.406	0.356	0.422	0.331	0.438	0.364	0.602	0.733	0.794	0.86	0.729	–	–	–	–	–
Calu-6	–	–	–	–	–	–	–	–	–	–	0.856	0.856	1.01	0.871	0.973	–	–	–	–	–
ChaGo-K-1	0.87	0.955	0.901	0.509	0.911	0.217	0.205	0.212	0.237	0.255	0.872	0.933	1.02	0.862	0.624	0.838	0.976	0.919	0.907	0.958
EBC-1	–	–	–	–	–	–	–	–	–	–	0.377	0.404	0.431	0.394	0.422	–	–	–	–	–
EKVX	0.387	0.33	0.321	0.257	0.276	0.41	0.492	0.358	0.347	0.341	0.859	1.01	1.03	0.804	1.1	0.623	0.719	0.759	0.723	0.717
EMC-BAC-2	0.493	0.542	0.489	0.422	0.506	0.301	0.299	0.272	0.391	0.412	1.15	1.35	1.27	1.2	1.23	1.14	1.11	1.14	1.02	1.06
EPLC-272H	–	0.322	0.334	0.315	0.351	0.247	0.223	0.204	0.23	0.242	–	1.04	1.19	1.33	1.43	0.236	0.162	0.186	0.168	0.197
H3255	0.292	0.304	0.298	0.296	0.304	0.721	0.642	0.589	0.541	1.2	0.397	0.581	0.67	0.325	0.506	0.814	0.887	0.874	0.773	0.839
HARA	0.219	0.266	0.26	0.265	0.226	0.125	0.0963	0.0847	0.106	0.123	1.18	1.18	1.2	1.13	1.16	0.326	0.26	0.345	0.185	0.258
HCC-15	0.514	0.731	0.765	0.516	0.625	0.461	0.564	0.435	0.49	0.605	0.713	0.799	0.776	0.726	0.721	1.22	1.4	1.19	1.26	1.38
HCC-44	0.825	0.922	0.867	0.81	0.812	1.07	1.14	0.702	1.02	1.19	1.09	1.13	1.01	1.12	1.02	1.07	1.05	1.01	1.08	1.04
HCC-78	0.449	0.412	0.454	0.409	0.488	0.6	0.493	0.493	0.477	0.446	0.657	0.792	0.859	0.943	0.836	0.633	0.717	0.556	0.672	0.614
